For data set [1], the system named is C57BL/6 mice. Kind of data set: Head twitch response (HTR) in mice. The settings on record: SC; for ED50: 20 min, read-out: ED50 (95% CI); for ED50 / Most Efficacious Dose / Emax (95% CI): mouse HTR; for ED50 / Emax (95% CI): 20 min observation, curve fit, poor in some cases; for # HTR at Most Efficacious Dose: head twitches in 20 min. It counts as in vivo, mouse.

Data set [2] is described as follows: Metabolic stability in rat liver microsomes (RLM). Particulars: for t1/2: RLM, 0.50 mg protein per mL; for microsomal CLint at 1 μM: both, rat, pooled rat liver microsomes, pH 7.4. A general note: Liver microsomes are vesicles of endoplasmic reticulum, rich in cytochrome P450 enzymes.
For data set [3], the target named is D1 receptor (Homo sapiens, UniProt P21728). Kind of data set: FLIPR Ca^2+ flux agonist assay at D1. It counts as cell-based. On the procedure:
Functional Assays at Adrenergic and Dopamine Receptors. Agonist activity at Alpha1A, Alpha2A, D1, and D2 receptors was determined using a FLIPR Ca^2+ flux assay at WuXi AppTec (Hong Kong) Limited according to their standard protocols. Briefly, stably transfected cells expressing the receptor of interest were grown and plated in a 384 well plate and incubated at 37° C. and 5% CO2 overnight. A solution of 250 mM probenecid in 1 mL FLIPR assay buffer was prepared fresh. This was combined with a fluorescent dye (Fluo-4 Direct™) to make a final assay concentration of 2.5 mM. […] The fluorescent dye was then added to the assay plate along with assay buffer to a final volume of 40 μL. The cell plate was incubated for 50 min at 37° C. and 5% CO2 and placed into the FLIPR Tetra along with the compound plate. 10 μL of references and compounds were then transferred from the compound plate into the cell plate and the fluorescent signal was read.

Data set [4] relates to Sprague Dawley rats. In words: Forced swim test (FST) in rats. It counts as in vivo, rat. The settings on record: for efficacy in FST compared to positive control desipramine (in words): 0.032 mg/kg, SC. On the procedure:
Compound 1 induced antidepressant-like effects in the forced swim test (FST) in rats with a 23.5-h pre-treatment time (FIG. 2).
Animals. Male Sprague Dawley rats, aged 9-10 weeks, were used in this experiment. Animals were housed in groups of 2 under controlled temperature (22±3° C.) and relative humidity (30-70%) conditions, with 12-hour light/dark cycles, and with ad libitum food and water. This study was carried out in strict accordance with the requirements of the Committee for the Purpose of Control and Supervision of Experiments on Animals (CPCSEA), India. All efforts were made to minimize suffering.
Drugs and Drug Administration. Compound 1 was synthesized as described above. Desipramine HCl was commercially obtained. The test compound, saline vehicle, and the positive control desipramine were administered subcutaneously (SC), with doses calculated based on the freebase. Normal saline was used as the vehicle. All compounds were administered at a volume of 5 mL/kg. The test compound and vehicle were administered 0.5 h after the start of the training swim (Swim 1) and 23.5 h before the test swim (Swim 2). Desipramine was administered 3 times, at 23.5 h, 5 h, and 1 h before the test swim (Swim 2), each time at a dose of 20 mg/kg. Group size was n=10 per treatment.
Forced Swim Test (FST). […] Rats were handled for about 2 min daily for the 5 days prior to the beginning of the experimental procedure. On the first day of the experiment (i.e., Day 0), post randomization, training swim sessions (Swim 1) were conducted between 12:00 and 18:00 h with all animals by placing rats in individual glass cylinders (46 cm tall×20 cm in diameter) containing 23-25° C. water 30 cm deep for 15 minutes. At the conclusion of Swim 1, animals were dried with paper towels, placed in heated drying cages for 15 minutes, and then returned to their home cages. […]
Behavioral scoring was conducted by observers who were blind to the treatment groups. Animals were continuously observed during Swim 2 and the total time spent engaging in the following behaviors was recorded: immobile, swimming, and climbing. […]

In data set [5] the target is T1, 5-HT2B receptor (Homo sapiens, UniProt P41595).
T1 construct: host or cells: HEK293
T1 sequence (P41595 whole entry): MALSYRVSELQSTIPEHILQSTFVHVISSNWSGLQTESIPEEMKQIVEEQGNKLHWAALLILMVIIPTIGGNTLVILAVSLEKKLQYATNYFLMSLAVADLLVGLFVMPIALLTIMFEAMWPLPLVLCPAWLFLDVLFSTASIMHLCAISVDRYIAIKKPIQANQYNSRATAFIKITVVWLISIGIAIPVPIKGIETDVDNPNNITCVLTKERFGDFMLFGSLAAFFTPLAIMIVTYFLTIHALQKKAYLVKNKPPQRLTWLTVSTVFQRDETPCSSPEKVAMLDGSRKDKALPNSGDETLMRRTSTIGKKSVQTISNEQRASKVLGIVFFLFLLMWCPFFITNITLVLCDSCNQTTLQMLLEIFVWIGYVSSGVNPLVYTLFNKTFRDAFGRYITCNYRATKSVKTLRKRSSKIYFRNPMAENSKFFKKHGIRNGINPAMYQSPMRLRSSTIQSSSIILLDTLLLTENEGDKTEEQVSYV
In words: 5-HT2B receptor radioligand binding with [^3H]LSD.

Where [6] appears, read: Ca^2+ flux, agonist, read-out: D1 EC50.

pEC50, pKi: −log10 of the molar value. Read-outs that look alike come from different tables or passages of the source.

D1 receptor, sequence (P21728 whole entry): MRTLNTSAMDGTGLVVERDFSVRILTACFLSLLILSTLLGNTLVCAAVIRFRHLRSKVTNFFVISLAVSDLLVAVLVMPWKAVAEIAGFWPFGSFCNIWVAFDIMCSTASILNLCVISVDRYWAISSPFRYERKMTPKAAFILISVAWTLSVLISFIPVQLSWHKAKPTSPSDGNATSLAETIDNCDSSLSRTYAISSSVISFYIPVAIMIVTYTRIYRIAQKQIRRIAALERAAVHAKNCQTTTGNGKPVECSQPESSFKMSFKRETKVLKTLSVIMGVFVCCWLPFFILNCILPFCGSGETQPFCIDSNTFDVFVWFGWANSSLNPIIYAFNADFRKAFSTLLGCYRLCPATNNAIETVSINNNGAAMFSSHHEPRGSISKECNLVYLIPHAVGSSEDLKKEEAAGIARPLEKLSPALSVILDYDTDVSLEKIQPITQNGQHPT

As a reminder, the ED50 is the midpoint of the dose-response relation. A word on the microsomal CLint: it is the rate of metabolic loss divided by the concentration. Lower therefore signals slow turnover. The term pEC50 denotes −log10 of the EC50, conventionally taken in molar units. In the case of `CCCN1C[C@H](C(=O)N(CC)CC)C=C2c3cccc4[nH]cc(c34)C[C@H]21` [Compound 1, (6aR,9R)—N,N-diethyl-7-propyl-4,6,6a,7,8,9-hexahydroindolo[4,3-fg]quinoline-9-carboxamide], in data set [1], the ED50 came to 0.0946 mg/kg, the “Most Efficacious Dose” value is reported as 1 mg/kg and the “Emax (95% CI)” value is reported as 21.63 (18.45-25.78). The “induction of head twitch response (in words)” value in data set [1] (mouse) was “robust and dose-dependent HTR”. In addition, in data set [2], the “t1/2” value was 16.2 min and the microsomal CLint at 1 μM was 85.4 µL/min/mg. Also, in data set [3], the pEC50 was 8.33. Also, the “immobility time relative to vehicle (in words)” value in data set [4] (rat FST, 23.5 h after a single SC administration) is listed as “reduced immobility time”.
Usually pKi stands for −log10 of the Ki, conventionally taken in molar units. A higher pKi goes with a low Ki. For `CCN(CC)C(=O)[C@@H]1C=C2c3cccc4[nH]cc(c34)C[C@H]2N(CCCF)C1` [Compound 2, (6aR,9R)—N,N-diethyl-7-(3-fluoropropyl)-4,6,6a,7,8,9-hexahydroindolo[4,3-fg]quinoline-9-carboxamide], in data set [1], the ED50 came out at 0.0703 mg/kg, the “Most Efficacious Dose” value turned out to be 0.32 mg/kg and the “Emax (95% CI)” value was 20.47 (18.43-22.6). Also, in data set [2], the “t1/2” value is listed as 11.972 min and the microsomal CLint at 1 μM is 116 µL/min/mg. Moreover, in data set [3], the pEC50 was 7.06. In addition, in data set [4], the “efficacy in FST compared to positive control desipramine (in words)” value was “as efficacious as the positive control desipramine”. Besides, the pKi in data set [5] is 8.39.
For the compound `CCCN1C[C@H](C(=O)N[C@H](C)CC)C=C2c3cccc4[nH]cc(c34)C[C@H]21` [Compound 3, (6aR,9R)—N—((R)-sec-butyl)-7-propyl-4,6,6a,7,8,9-hexahydroindolo[4,3-fg]quinoline-9-carboxamide], in data set [1], the median effective dose (ED50) was 0.0401 mg/kg, the “Most Efficacious Dose” value is 0.32 mg/kg and the “Emax (95% CI)” value was 25.56 (22.08-29.36). For the same compound, the “# HTR at Most Efficacious Dose” value in data set [1] (mouse) is 27.0. Further, in data set [2], the “t1/2” value is given as 4.4 min and the microsomal CLint at 1 μM came out at 318 µL/min/mg. In data set [3], this compound gave a pEC50 of 7.32. This compound also showed a pKi in data set [5] of 8.39.
As to `CCCN1C[C@H](C(=O)N2[C@@H](C)C[C@@H]2C)C=C2c3cccc4[nH]cc(c34)C[C@H]21` [Compound 4, ((2S,4S)-2,4-dimethylazetidin-1-yl)((6aR,9R)-7-propyl-4,6,6a,7,8,9-hexahydroindolo[4,3-fg]quinolin-9-yl)methanone], in data set [1], the ED50 amounted to 0.376 mg/kg, the “Most Efficacious Dose” value worked out at 0.1 mg/kg and the “Emax (95% CI)” value is recorded as 4.034 (2.965-5.217). For the same compound, the “efficacy in HTR assay (in words)” value in data set [1] (mouse) was “less efficacious”. Besides, in data set [2], the “t1/2” value stood at 12.8 min and the microsomal CLint at 1 μM came out at 108 µL/min/mg. The compound further had a pEC50 in data set [3] of 7.09. The “efficacy in FST compared to positive control desipramine (in words)” value in data set [4] is given as “as efficacious as the positive control desipramine”. Also, the pKi in data set [5] is 7.75.
Take `CCCN1C[C@H](C(=O)NC(CC)CC)C=C2c3cccc4[nH]cc(c34)C[C@H]21` [Compound 6, (6aR,9R)—N-(pentan-3-yl)-7-propyl-4,6,6a,7,8,9-hexahydroindolo[4,3-fg]quinoline-9-carboxamide]: in data set [1], the ED50 worked out at 0.139 mg/kg, the “Most Efficacious Dose” value is given as 1 mg/kg and the “Emax (95% CI)” value is recorded as 23.06 (19.86-27.47). Further, in data set [2], the “t1/2” value came to 1.655 min and the intrinsic metabolic clearance (microsomal CLint) at 1 μM was found to be 837 µL/min/mg. The pEC50 in data set [3] is 7.74. For the same compound, the pKi in data set [5] was 8.48.
For `CCN(CC)C(=O)[C@@H]1C=C2c3cccc4[nH]cc(c34)C[C@H]2N(Cc2ccccc2OC)C1` [Compound 10, (6aR,9R)—N,N-diethyl-7-(2-methoxybenzyl)-4,6,6a,7,8,9-hexahydroindolo[4,3-fg]quinoline-9-carboxamide], in data set [1], the ED50 is 1.26 mg/kg, the “Most Efficacious Dose” value was determined as 3.2 mg/kg and the “Emax (95% CI)” value is given as 7.749 (4.126-???). In addition, in data set [1] (mouse), the “efficacy in HTR assay (in words)” value is recorded as “low efficacy” and the “# HTR at Most Efficacious Dose” value is listed as 6.5. Moreover, in data set [2], the “t1/2” value was 3.4 min and the microsomal CLint at 1 μM came out at 407 µL/min/mg. Further, the pEC50 in data set [3] (setting [6]) is 5.56.
Take `CCN(CC)C(=O)[C@@H]1C=C2c3cccc4[nH]cc(c34)C[C@H]2N(CCc2ccccc2OC)C1` [Compound 11, (6aR,9R)—N,N-diethyl-7-(2-methoxyphenethyl)-4,6,6a,7,8,9-hexahydroindolo[4,3-fg]quinoline-9-carboxamide]: in data set [1], the ED50 amounted to 2.21 mg/kg, the “Most Efficacious Dose” value is on record as 3.2 mg/kg and the “Emax (95% CI)” value is reported as 19.79 (12.66-80.7). In data set [1] (mouse), the “efficacy in HTR assay (in words)” value was “low efficacy” and the “# HTR at Most Efficacious Dose” value is reported as 12.0. In data set [2], the “t1/2” value was found to be 1.159 min and the microsomal CLint at 1 μM was 1200 µL/min/mg. Moreover, the pEC50 in data set [3] (setting [6]) was 5.80.

For the origin of these results see US20230116703A1, “NOVEL ERGOLINES AND METHODS OF TREATING MOOD DISORDERS” (priority 2021, published 2023).
